# Experimental data: patent publication US20250049737A1, “Lauflumide and derivatives thereof for treating chronic fatigue syndrome and myalgic encephalomyelitis/chronic fatigue syndrome (ME/CFS)” (NLS Pharmaceutics AG, priority 2021, published 2025)
# Experiments:
# [1] = target: T1, NPY1 (h) (reverse agonist radioligand) (Homo sapiens, UniProt P25929); experiment: Radioligand binding panel (Eurofins CEREP), NPY1; details: % inhibition of control specific binding
# T1 construct: Eurofins CEREP (contract study 100014859)
# T1 sequence (P25929 1-384): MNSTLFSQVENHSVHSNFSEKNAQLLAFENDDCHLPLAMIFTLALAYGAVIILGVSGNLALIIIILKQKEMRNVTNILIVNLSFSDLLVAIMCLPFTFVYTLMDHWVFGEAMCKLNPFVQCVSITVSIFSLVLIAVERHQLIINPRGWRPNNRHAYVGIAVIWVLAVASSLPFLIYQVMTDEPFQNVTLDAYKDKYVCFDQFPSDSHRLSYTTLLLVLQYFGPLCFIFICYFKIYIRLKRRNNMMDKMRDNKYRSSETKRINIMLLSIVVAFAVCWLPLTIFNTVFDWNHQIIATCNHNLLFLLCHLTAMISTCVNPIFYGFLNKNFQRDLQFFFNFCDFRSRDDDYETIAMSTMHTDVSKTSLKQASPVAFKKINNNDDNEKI
# Description: Lauflumide is tested at 10^-5 M, calculated as a % inhibition of control specific binding of a radioactively labeled ligand specific for each target.
# This binding profile panel was broadly defined with roughly an equal number of selective, central and peripheral therapeutically relevant targets, including native animal tissues, radioligands and specific enzymes involved in cell cycle regulation in accordance with Eurofins Standard Operating Procedure (www.eurofins.fr).
# For radioligand binding experiments, the half maximal inhibitory concentration (IC50) and the half maximal effective concentration (EC50) values were determined (via computer software) by nonlinear regression analysis of the competition curves using Hill equation curve fitting. The inhibition constants (Ki) were calculated using the Cheng-Prusoff equation (Ki=IC50/(1+(L/KD)), where L is the concentration of radioligand in the assay, and KD is the affinity of the radioligand for the receptor.
# The results are expressed as a % control specific binding ([measured specific binding/control specific binding]×100) and as a % inhibition of control specific binding (100−[(measured specific binding/control specific binding)×100]) obtained in the presence of the test compounds. […]
# [2] = Body weight during fatigue procedure and test period; type: in vivo, Rats, Sprague-Dawley; details: test period
# Description: FIG. 26 Body weight (in g; mean, SEM) before the beginning and during the fatigue procedure (F-D1-7) and during the test period (T-D1-D3+24 h).
# Animals were weighed every day.
# After the end of the Fatigue procedure, animals were divided into 10 groups which received before tests (total: 3 administrations) a per-os (p.o., oral gavage) administration of: • Sham (no fatigue) group (N=12): Vehicle. • Control group (N=11): Vehicle. • Modafinil 32 (N=10): modafinil (32 mg/kg). • Modafinil 64 (N=10): modafinil (64 mg/kg). • Modafinil 128 (N=5): modafinil (128 mg/kg). • NLS-4 16 (N=5): NLS-4 (16 mg/kg). • NLS-4 32 (N=10): NLS-4 (32 mg/kg). • NLS-4 64 (N=10): NLS-4 (64 mg/kg). • NLS-4 128 (N=10): NLS-4 (128 mg/kg). • NLS-4 256 (N=5): NLS-4 (256 mg/kg).
compound,measurement,setting,value
"NC(=O)C[S@@+]([O-])C(c1ccc(F)cc1)c1ccc(F)cc1 [Lauflumide, 2-[(R)-((bis(4-fluorophenyl)methane)sulfinyl)]acetamide]",% Inhibition at 10^−5M,[1],27.3%
same,Weight loss induced by the fatigue procedure,[2]; 16 mg/kg p.o.,not modified
same,Weight loss induced by the fatigue procedure,[2]; 32-256 mg/kg p.o.,aggravated
